Where “and” joins values, the source holds several entries; their conditions need not be identical. Equal entries are not always repeated. Structures can show the parent of a compound that is named as a salt. Where two headings read alike, the source gives them in different places.
Assays:
hKOR = target: T1, hKOR (Homo sapiens, UniProt P41145); test: KOR [35S]GTPγS agonist assay (commercial); assay type: biochemical; settings: agonist, n = 1
T1 construct: expressed in transfected cells; host or cells: HEK-293T, transient (PEI)
T1 sequence (P41145 whole entry): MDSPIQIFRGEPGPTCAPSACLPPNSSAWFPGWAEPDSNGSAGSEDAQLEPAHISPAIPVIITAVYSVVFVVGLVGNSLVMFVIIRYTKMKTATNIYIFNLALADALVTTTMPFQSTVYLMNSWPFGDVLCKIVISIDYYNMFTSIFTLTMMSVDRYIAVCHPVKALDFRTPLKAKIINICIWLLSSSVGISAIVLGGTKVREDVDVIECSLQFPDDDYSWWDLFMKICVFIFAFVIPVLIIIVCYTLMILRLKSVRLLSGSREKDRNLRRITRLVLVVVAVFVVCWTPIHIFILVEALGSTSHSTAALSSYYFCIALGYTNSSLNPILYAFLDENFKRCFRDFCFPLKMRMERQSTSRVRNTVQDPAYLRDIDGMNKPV

[1] = tested on: adult human primary ventricular myocytes; test: Cardiotoxicity (pro-arrhythmia) assay in adult human primary cardiomyocytes; assay type: cell-based; settings: for pro-arrhythmic potential: 0.1–10 µM
rKOR [2] = target: T2, rKOR (Rattus norvegicus, UniProt P34975); test: G protein activation BRET assay (GαoB); assay type: cell-based; settings: for EC50: HEK-293T
T2 construct: signal peptide (N); expressed in transfected cells; host or cells: HEK-293T, transient (PEI)
T2 sequence (P34975 whole entry): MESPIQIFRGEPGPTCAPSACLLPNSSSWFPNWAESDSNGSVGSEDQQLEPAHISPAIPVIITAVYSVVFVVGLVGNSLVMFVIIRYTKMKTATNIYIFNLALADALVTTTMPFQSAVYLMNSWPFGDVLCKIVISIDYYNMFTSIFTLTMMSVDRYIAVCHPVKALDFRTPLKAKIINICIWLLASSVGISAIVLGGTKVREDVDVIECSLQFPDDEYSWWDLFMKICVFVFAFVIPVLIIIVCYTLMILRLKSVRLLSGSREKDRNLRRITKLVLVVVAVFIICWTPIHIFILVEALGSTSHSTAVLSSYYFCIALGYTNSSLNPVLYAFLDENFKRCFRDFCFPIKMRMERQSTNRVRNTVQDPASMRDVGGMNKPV

hERG potassium channel = target: T3, hERG potassium channel (Homo sapiens, UniProt Q12809); settings: lit. value; cited from earlier work
T3 construct: purchased contracted research organization (eurofinsdiscoveryservices.com) item 4094
T3 sequence (Q12809 whole entry): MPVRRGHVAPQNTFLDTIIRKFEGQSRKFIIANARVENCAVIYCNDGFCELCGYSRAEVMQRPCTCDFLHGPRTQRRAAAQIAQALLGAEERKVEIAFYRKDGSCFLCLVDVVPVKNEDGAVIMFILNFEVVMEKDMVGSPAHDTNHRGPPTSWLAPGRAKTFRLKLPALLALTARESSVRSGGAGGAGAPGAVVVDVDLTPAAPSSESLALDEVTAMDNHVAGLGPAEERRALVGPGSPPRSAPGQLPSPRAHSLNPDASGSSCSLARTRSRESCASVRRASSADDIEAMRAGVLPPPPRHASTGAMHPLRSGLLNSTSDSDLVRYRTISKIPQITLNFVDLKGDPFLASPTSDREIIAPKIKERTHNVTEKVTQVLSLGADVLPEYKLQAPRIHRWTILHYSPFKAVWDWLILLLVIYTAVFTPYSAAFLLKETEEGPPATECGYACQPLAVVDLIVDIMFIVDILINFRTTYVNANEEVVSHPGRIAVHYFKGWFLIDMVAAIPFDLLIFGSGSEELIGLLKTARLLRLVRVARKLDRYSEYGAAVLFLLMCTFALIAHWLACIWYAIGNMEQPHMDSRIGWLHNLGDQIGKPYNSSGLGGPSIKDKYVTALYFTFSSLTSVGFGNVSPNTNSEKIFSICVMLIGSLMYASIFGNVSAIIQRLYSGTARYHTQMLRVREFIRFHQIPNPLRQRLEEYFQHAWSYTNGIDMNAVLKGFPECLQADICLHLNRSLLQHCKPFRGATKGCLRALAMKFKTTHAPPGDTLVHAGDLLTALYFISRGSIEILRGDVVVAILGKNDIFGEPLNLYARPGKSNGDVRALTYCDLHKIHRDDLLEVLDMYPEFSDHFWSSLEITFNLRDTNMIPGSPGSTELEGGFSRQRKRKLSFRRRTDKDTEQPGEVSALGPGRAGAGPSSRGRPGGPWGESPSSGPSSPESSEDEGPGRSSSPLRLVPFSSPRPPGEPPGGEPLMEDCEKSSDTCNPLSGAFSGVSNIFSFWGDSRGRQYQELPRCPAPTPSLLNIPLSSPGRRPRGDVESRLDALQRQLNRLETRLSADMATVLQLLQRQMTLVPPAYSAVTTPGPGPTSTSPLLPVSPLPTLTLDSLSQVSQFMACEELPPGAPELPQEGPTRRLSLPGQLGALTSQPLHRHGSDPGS

male rats = test: Food maintained (operant) responding; assay type: in vivo, rat; settings: 40 mg/kg i.p.
Procedure: For food maintained responding studies, food access was restricted such that rats were maintained at 90% of their normal body weight until responding stabilized, at which point rats were provided 12–15 g of rodent chow in addition to the food pellets earned during the experimental session.
Rats were lever trained as described in the general methods. Responding was maintained as described with notable difference in timeout (TO) period 6 min and sessions lasting 2 h or until a maximum of 20 pellets was delivered. […] Responding was considered stable when variation in the number of reinforcers for three consecutive sessions was less than 20%. For the group receiving oxa-noribogaine, data were analyzed using a two-way ANOVA with Šidák’s multiple comparisons test for post hoc comparison.

[3] = target: T4, human nicotinic acetylcholine receptor (nAChR α3β4) (Homo sapiens, UniProt P30926+P32297); test: nAChR α3β4 inhibition, electrophysiology (commercial); assay type: cell-based
T4 construct: purchased contracted research organization (eurofinsdiscoveryservices.com) item CYL8057IF2
T4 sequence (P32297 32-505): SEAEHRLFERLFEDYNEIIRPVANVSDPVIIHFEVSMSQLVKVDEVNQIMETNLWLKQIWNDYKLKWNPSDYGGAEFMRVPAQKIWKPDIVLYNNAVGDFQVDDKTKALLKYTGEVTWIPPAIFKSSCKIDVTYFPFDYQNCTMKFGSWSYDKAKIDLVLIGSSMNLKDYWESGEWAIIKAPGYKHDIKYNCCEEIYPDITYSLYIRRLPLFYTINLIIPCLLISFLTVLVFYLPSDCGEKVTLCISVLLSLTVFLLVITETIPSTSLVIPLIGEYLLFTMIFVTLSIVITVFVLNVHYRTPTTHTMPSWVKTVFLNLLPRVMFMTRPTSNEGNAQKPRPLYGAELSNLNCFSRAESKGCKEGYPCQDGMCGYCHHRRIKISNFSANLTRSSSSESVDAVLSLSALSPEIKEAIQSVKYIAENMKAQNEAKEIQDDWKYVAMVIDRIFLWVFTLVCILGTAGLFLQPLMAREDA
T4 sequence (P30926 22-498): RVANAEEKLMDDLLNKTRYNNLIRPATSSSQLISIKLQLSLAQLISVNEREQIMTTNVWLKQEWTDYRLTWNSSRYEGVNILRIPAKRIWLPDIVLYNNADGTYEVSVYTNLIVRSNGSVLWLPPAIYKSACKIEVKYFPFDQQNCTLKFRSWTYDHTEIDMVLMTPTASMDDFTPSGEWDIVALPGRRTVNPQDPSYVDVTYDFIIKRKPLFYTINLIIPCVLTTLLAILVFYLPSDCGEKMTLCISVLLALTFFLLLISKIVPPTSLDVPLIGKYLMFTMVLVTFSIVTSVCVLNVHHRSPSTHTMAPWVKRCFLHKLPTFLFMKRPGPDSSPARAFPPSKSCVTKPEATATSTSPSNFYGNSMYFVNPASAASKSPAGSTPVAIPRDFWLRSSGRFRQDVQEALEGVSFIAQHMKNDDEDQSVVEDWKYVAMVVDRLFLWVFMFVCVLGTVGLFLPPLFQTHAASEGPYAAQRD

in vitro = settings: human, pH 7.4
[4] = human
hMOR = hMOR (Homo sapiens, UniProt P35372); test: cell-based
hMOR, sequence (P35372 whole entry): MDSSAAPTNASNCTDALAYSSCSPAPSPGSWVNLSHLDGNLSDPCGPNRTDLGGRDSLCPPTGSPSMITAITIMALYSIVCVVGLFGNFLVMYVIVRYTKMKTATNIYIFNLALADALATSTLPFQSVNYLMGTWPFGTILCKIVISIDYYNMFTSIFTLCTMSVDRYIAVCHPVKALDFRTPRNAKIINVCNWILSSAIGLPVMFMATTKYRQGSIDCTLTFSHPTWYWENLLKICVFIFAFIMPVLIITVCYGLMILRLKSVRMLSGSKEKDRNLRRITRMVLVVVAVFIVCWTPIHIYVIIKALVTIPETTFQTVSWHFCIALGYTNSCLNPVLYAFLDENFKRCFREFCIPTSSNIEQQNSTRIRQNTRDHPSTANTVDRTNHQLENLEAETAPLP

rKOR [5] = target: T2, rKOR; test: Nanobody Nb33 sensor recruitment BRET assay; assay type: cell-based; settings: for response, Fig. S5c concentration-response point (replicates): Log [Drug]
male Fisher F-344 rats = test: Morphine intravenous self-administration; assay type: in vivo, rat; settings: for self-administration per session, individual animals (Fig. S9a): 40 mg/kg
mMOR = target: T5, mMOR (Mus musculus, UniProt P42866); test: G protein activation BRET assay; assay type: cell-based; settings: for Fig. S5h concentration-response data point: Log [Drug], single replicate values
T5 construct: expressed in transfected cells; host or cells: HEK-293T, transient (PEI)
T5 sequence (P42866 whole entry): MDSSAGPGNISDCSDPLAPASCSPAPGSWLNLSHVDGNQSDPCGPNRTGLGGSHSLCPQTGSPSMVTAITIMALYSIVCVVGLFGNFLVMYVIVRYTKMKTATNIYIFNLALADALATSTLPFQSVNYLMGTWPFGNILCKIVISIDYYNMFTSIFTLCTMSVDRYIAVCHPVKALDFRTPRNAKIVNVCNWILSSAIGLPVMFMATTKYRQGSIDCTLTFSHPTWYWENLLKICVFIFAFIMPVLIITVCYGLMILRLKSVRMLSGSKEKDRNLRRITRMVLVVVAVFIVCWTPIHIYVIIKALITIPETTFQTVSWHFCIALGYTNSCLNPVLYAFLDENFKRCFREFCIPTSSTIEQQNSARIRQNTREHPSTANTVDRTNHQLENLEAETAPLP

h5-HT2B = h5-HT2B (Homo sapiens, UniProt P41595); test: IP1 functional assay, antagonist; assay type: cell-based; settings: read-out: % Inhibition of Control Agonist Response
h5-HT2B, sequence (P41595 whole entry): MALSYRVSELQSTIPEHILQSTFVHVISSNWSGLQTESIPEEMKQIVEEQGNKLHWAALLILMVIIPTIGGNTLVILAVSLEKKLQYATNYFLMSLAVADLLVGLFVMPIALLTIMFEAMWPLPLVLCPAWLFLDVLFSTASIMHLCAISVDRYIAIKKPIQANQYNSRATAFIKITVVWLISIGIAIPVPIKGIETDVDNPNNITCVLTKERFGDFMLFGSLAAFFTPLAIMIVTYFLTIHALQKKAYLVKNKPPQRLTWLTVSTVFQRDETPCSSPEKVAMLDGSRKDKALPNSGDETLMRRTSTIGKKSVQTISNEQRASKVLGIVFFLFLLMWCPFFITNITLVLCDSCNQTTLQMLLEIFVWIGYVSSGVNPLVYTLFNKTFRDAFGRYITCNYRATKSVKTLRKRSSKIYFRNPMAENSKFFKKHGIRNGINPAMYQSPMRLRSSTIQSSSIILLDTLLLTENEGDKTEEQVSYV

CCC1CC2CC3c4[nH]c5ccc(O)cc5c4CCN(C2)C13 (stereo not shown) [Noribogaine, Noribogaine hydrochloride]
Emax (hKOR): 73% | EC50 (hKOR; (95% CI)): 8.33 µM | concentration with greater than 20% incidence of arrhythmia-associated events (considerable pro-arrhythmia risk) [1]: ≥ 1000 nM | Alternans % ([1]; 0.1 (µM)): 0% | Contraction Failure % ([1]; 0.1 (µM)): 0% | STV % ([1]; 0.1 (µM)): 0% | After-contraction % ([1]; 0.1 (µM), incidence of cells): 16.67% | pro-arrhythmic potential [1]: pro-arrhythmic potential by causing after-contractions and contraction failures | pro-arrhythmic potential ([1]; listed as noribogaine): concentration-dependent pro-arrhythmia risk | After-contraction % ([1]; 1 (µM)): 33.33% | Alternans % ([1]; 1 (µM)): 0% | Contraction Failure % ([1]; 1 (µM)): 0% | STV % ([1]; 1 (µM)): 0% | After-contraction % ([1]; 3.16 (µM)): 50% | Alternans % ([1]; 3.16 (µM)): 0% | Contraction Failure % ([1]; 3.16 (µM)): 16.67% | STV % ([1]; 3.16 (µM)): 0% | After-contraction % ([1]; 10 (µM)): 50% | Alternans % ([1]; 10 (µM)): 0% | Contraction Failure % ([1]; 10 (µM)): 16.67% | STV % ([1]; 10 (µM)): 0% | EC50 (rKOR [2]): 6.1 µM | EC50 (rKOR [2]; (95% CI)): 6.24 µM | Emax (rKOR [2]; normalized to Emax of U-50,488): 52% | Ki (hERG potassium channel): 2 µM | suppression of responding maintained by food on day 1 (male rats): > 80% | IC50 [3]: 5 µM | IC50 ([3]; electrophysiology, n = 1, (95% CI)): 4.96 µM | recovery at 4 h, 5 µM (in vitro): 75% | fraction unbound (in vitro; plasma): 0.401 | % Stability (4 h) [4]: 105% | % Unbound ([4]; plasma, pH 7.4): 40.1% | EC50 (hMOR): 11.1 µM | Emax (hMOR): 57% | response, Fig. S5c concentration-response point (replicates) (rKOR [5]; M = -4): 0.6832 and -2.533 and 1.849 and 9.706 and 9.178 and 4.549 and -7.153 and 2.312 and 4.8409 | response, Fig. S5c concentration-response point (replicates) (rKOR [5]; M = -5): 9.7994 and 6.733 and 8.435 and 9.706 and 10.7702 and 15.0341 and 0.9856 and -0.8825 and 4.299 | response, Fig. S5c concentration-response point (replicates) (rKOR [5]; M = -6): 9.626 and 6.623 and 8.559 and 3.312 and 9.163 and -0.7272 and 9.077 and 6.531 and 9.714 | response, Fig. S5c concentration-response point (replicates) (rKOR [5]; M = -7): 8.087 and 5.264 and 16.9405 and 8.98 and 10.0186 and 11.1512 and 4.05 and 6.477 and 19.1494 | response, Fig. S5c concentration-response point (replicates) (rKOR [5]; M = -8): 10.1716 and 9.452 and 9.651 and 4.904 and -0.3201 and 10.6815 and 14.8896 and 2.949 and 7.869 | response, Fig. S5c concentration-response point (replicates) (rKOR [5]; M = -9): 2.743 and 3.189 and 8.9111 and 2.535 and 1.402 and 3.813 and 4.639 and -0.2876 and 6.5008 | response, Fig. S5c concentration-response point (replicates) (rKOR [5]; M = -10): 4.986 and 10.7522 and 12.8464 and -2.314 and -2.554 and 4.868 and 5.9 and 1.688 and 15.6928 | response, Fig. S5c concentration-response point (replicates) (rKOR [5]; M = -11): 8.177 and 6.107 and 7.7052 and 7.712 and 6.632 and -6.719 and 26.9849 and 11.0819 and 18.0666 | % effect at 100 µM (rKOR [5]; at 100 µM): < 4% | effect on morphine self-administration (male Fisher F-344 rats; 40 mg/kg i.p.): partial, but statistically significant, suppression of morphine intake on days 2 and 3, returning to pre-treatment level of morphine intake on day 5 | self-administration per session, individual animals (Fig. S9a) (male Fisher F-344 rats; session 1): 0 (2×) and 4 (2×) and 8 and 6 (2×) and 2 | self-administration per session, individual animals (Fig. S9a) (male Fisher F-344 rats; session 2): 7 and 19 and 24 and 41 and 27 (2×) and 15 (2×) | self-administration per session, individual animals (Fig. S9a) (male Fisher F-344 rats; session 3): 17 and 21 and 50 and 28 | self-administration per session, individual animals (Fig. S9a) (male Fisher F-344 rats; session 5): 49 and 40 and 50 (2×) and 36 (2×) and 31 and 21 | self-administration per session, individual animals (Fig. S9a) (male Fisher F-344 rats; session 6): 50 (5×) and 42 and 26 and 19 | self-administration per session, individual animals (Fig. S9a) (male Fisher F-344 rats; session 7): 29 (2×) and 15 and 50 (4×) and 17 | self-administration per session, individual animals (Fig. S9a) (male Fisher F-344 rats; session 8): 30 (2×) and 50 (4×) and 28 and 26 | self-administration per session, individual animals (Fig. S9a) (male Fisher F-344 rats; session 9): 26 and 35 and 50 (3×) and 22 and 28 and 13 | self-administration per session, individual animals (Fig. S9a) (male Fisher F-344 rats; session 10): 34 and 25 and 50 (3×) and 20 and 41 and 14 | self-administration per session, individual animals (Fig. S9a) (male Fisher F-344 rats; session 11): 33 and 19 and 50 (3×) and 9 and 26 and 3 | self-administration per session, individual animals (Fig. S9a) (male Fisher F-344 rats; session 12): 50 (5×) and 14 and 40 and 19 | self-administration per session, individual animals (Fig. S9a) (male Fisher F-344 rats; session 13): 50 (3×) and 23 and 33 and 28 | self-administration per session, individual animals (Fig. S9a) (male Fisher F-344 rats; session 14): 50 (3×) and 21 and 38 and 17 | self-administration per session, individual animals (Fig. S9a) (male Fisher F-344 rats; session 15): 50 | Emax (mMOR): 19% | EC50 (mMOR; (95% CI)): 9.11 µM | Fig. S5h concentration-response data point (mMOR; M = -4): 24.8885 and 26.6264 and 27.7428 and 17.4963 and -8.212 and 30.4244 and 10.6283 and 6.222 and 21.9832 | Fig. S5h concentration-response data point (mMOR; M = -5): 8.23 and 17.0849 and 17.7259 and 22.4715 and 22.153 and 9.821 and 3.187 and 0.3566 and 4.1 | Fig. S5h concentration-response data point (mMOR; M = -6): 4.604 and 7.207 and -5.062 and 6.292 and -3.562 and -1.853 and 2.1627 and 6.968 and -3.361 | Fig. S5h concentration-response data point (mMOR; M = -7): 5.516 and -3.12 and 0.3751 and -1.392 and 9.617 and 0.0554 and -3.657 and -2.623 and -4.7725 | Fig. S5h concentration-response data point (mMOR; M = -8): 2.807 and -9.751 and -4.108 and 4.434 and 1.624 and 11.894 and 1.215 and 7.908 and -0.803 | Fig. S5h concentration-response data point (mMOR; M = -9): 3.672 and 14.0917 and -2.71 and 1.993 and 2.042 and -8.571 and -5.966 and 3.235 and -0.5438 | Fig. S5h concentration-response data point (mMOR; M = -10): 5.694 and 7.45 and -0.02465 and -4.39 and 8.693 and -12.0081 and -1.935 and 3.572 and 2.108 | Fig. S5h concentration-response data point (mMOR; M = -11): 0.01325 and 7.439 and 24.776 and 1.616 and -6.541 and -6.127 and 16.1632 and 10.3257 and 7.821 | inhibition at 10 µM (h5-HT2B; 1.00E-05 M): 10% | inhibition at 1 µM (h5-HT2B; 1.00E-06 M): 7%

Reference: publication PMC11415492 (Nature Communications, 2024)
